IC50 data for 26 compounds are collected here from patent US10173991B2, “Sulfone amide linked benzothiazole inhibitors of endothelial lipase” (BRISTOL-MYERS SQUIBB COMPANY, priority 2014, dated 2019).

In the assay the target is Endothelial lipase (EL) (Homo sapiens (Human), UniProt Q9Y5X9). The assay is described as follows: Endothelial lipase (EL) enzymatic assay with fluorescent substrate A10070 in DMPG vesicles. Type of assay: biochemical. The method in brief: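 Substrate A10070 sits in sonicated DMPG vesicles at 0.11 mole fraction. Lipase and compound preincubated 30 min, 37° C, in HEPES pH 8.0 buffer with CaCl2.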

Setting [1] is: EL from conditioned media of HT-1080 cells, 30 min preincubation at 37° C.

Like-named read-outs stand apart in the source and are kept apart here.

Chain of Endothelial lipase (EL) (Q9Y5X9 21-500): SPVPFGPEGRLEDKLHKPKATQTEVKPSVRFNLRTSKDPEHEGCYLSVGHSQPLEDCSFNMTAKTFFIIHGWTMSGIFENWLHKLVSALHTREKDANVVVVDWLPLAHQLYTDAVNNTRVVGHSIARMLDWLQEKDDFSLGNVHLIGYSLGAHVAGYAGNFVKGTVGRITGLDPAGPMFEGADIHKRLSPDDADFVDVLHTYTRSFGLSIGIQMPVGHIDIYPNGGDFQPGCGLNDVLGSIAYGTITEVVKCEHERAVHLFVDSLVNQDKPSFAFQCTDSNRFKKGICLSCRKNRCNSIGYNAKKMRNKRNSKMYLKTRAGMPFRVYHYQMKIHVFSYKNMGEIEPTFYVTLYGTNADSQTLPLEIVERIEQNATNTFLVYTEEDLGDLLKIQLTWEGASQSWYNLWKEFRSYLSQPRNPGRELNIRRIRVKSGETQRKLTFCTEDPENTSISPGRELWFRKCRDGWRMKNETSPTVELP

As to `COCCNC(=O)CNC(=O)C(c1nc2cc(-c3ccc(F)nc3)ccc2s1)S(=O)(=O)CCOC` (centres unmarked) [Example 390, 2-[5-(6-fluoropyridin-3-yl)-1,3-benzothiazol-2-yl]-2-(2-methoxyethane-sulfonyl)-N-{[(2-methoxyethyl)carbamoyl]methyl} acetamide], the IC50 came to 102 nM. On the same count and under the same terms, then `COCCS(=O)(=O)C(C(=O)NCC(=O)NC1(c2ncon2)CC1)c1nc2ccc(-c3ccc(F)nc3)cc2s1` (centres unmarked) [Example 391, 2-[6-(6-fluoropyridin-3-yl)-1,3-benzothiazol-2-yl]-2-(2-methoxyethane-sulfonyl)-N-({[1-(1,2,4-oxadiazol-3-yl)cyclopropyl]carbamoyl}methyl) acetamide], with 68 nM; and `COCCS(=O)(=O)C(C(=O)NCC(=O)NC1(C)CC1)c1nc2cc(-c3ccc(F)nc3)ccc2s1` (centres unmarked) [Example 392, 2-[5-(6-fluoropyridin-3-yl)-1,3-benzothiazol-2-yl]-2-(2-methoxyethane-sulfonyl)-N-{[(1-methylcyclopropyl)carbamoyl]methyl} acetamide], with 14 nM. In turn, `COCCS(=O)(=O)C(C(=O)NCC(=O)NC1CC1)c1nc2ccc(-c3ccc(C(=O)N(C)C4CC4)cc3)cc2s1` (centres unmarked) [Example 393, N-Cyclopropyl-4-(2-(2-((2-(cyclopropylamino)-2-oxoethyl)amino)-1-((2-methoxyethyl)sulfonyl)-2-oxoethyl)benzo[d]thiazol-6-yl)-N-methylbenzamide] had an IC50 under setting [1] of 33 nM.

Turning to `COCCS(=O)(=O)C(C(=O)NCC(=O)NC1CC1)c1nc2cc(-c3cccc(C(=O)NCC(F)(F)F)c3)ccc2s1` (centres unmarked) [Example 394, 3-[2-({[(cyclopropyl-carbamoyl)methyl]carbamoyl}(2-methoxyethane-sulfonyl)methyl)-1,3-benzothiazol-5-yl]-N-(2,2,2-trifluoroethyl) benzamide], the IC50 is 4 nM. The compound `COCCS(=O)(=O)C(C(=O)NCC(=O)NC1CC1)c1nc2cc(-c3cccc(C(=O)N4CCOCC4)c3)ccc2s1` (centres unmarked) [Example 395, N-[(cyclopropyl-carbamoyl)methyl]-2-(2-methoxyethane-sulfonyl)-2-{5-[3-(morpholine-4-arbonyl)phenyl}-1,3-benzothiazol-2-yl}acetamide] gave an IC50 of 4 nM. The same measure, in the same setting: then `COCCS(=O)(=O)C(C(=O)NCC(=O)NC1CC1)c1nc2cc(-c3cccc(C(=O)N4CCC(F)(F)C4)c3)ccc2s1` (centres unmarked) [Example 396, N-[(cyclopropyl-carbamoyl)methyl]-2-{5-[3-(3,3-difluoro-pyrrolidine-1-carbonyl)phenyl]-1,3-benzothiazol-2-yl}-2-(2-methoxyethane-sulfonyl)acetamide], with 8 nM; and `COCCS(=O)(=O)C(C(=O)NCC(=O)NC1CC1)c1nc2cc(-c3cccc(C(=O)N4CCN(C)CC4)c3)ccc2s1` (centres unmarked) [Example 397, N-[(cyclopropyl-carbamoyl)methyl]-2-(2-methoxyethane-sulfonyl)-2-{5-[3-(4-methylpiperazine-1-carbonyl)phenyl]-1,3-benzothiazol-2-yl}acetamide], with 19 nM; and `COCCS(=O)(=O)C(C(=O)NCC(=O)NC1CC1)c1nc2cc(-c3cccc(C(=O)N(C)C)c3)ccc2s1` (centres unmarked) [Example 398, 3-[2-({[(cyclopropyl-carbamoyl)methyl]carbamoyl}(2-methoxyethane-sulfonyl)methyl)-1,3-benzothiazol-5-yl]-N,N-dimethyl-benzamide], with 38 nM.

Compound `COCCS(=O)(=O)C(C(=O)NCC(=O)NC1CC1)c1nc2cc(-c3cccc(C(=O)NCCO)c3)ccc2s1` (centres unmarked) [Example 399, 3-[2-({[(cyclopropyl-carbamoyl)methyl]carbamoyl}(2-methoxyethane-sulfonyl)methyl)-1,3-benzothiazol-5-yl]-N-(2-hydroxyethyl) benzamide] displayed an IC50 of 63 nM. On the same count and under the same terms, then `COCCNC(=O)c1cccc(-c2ccc3sc(C(C(=O)NCC(=O)NC4CC4)S(=O)(=O)CCOC)nc3c2)c1` (centres unmarked) [Example 400, 3-[2-({[(cyclopropyl-carbamoyl)methyl]carbamoyl}(2-methoxyethane-sulfonyl)methyl)-1,3-benzothiazol-5-yl]-N-(2-methoxyethyl) benzamide], with 9 nM; and `COC1(C)CN(C(=O)c2ccc(-c3ccc4nc(C(C(=O)NCC(=O)NC5CC5)S(=O)(=O)c5ccccc5)sc4c3)cc2)C1` (centres unmarked) [Example 401, 2-(benzenesulfonyl)-N-[(cyclopropyl-carbamoyl)methyl]-2-{6-[4-(3-methoxy-3-methylazetidine-1-carbonyl)phenyl]-1,3-benzothiazol-2-yl}acetamide], with 5 nM. On the same count and under the same terms, then `CC1(O)CN(C(=O)c2ccc(-c3ccc4nc(C(C(=O)NCC(=O)NC5CC5)S(=O)(=O)c5ccccc5)sc4c3)cc2)C1` (centres unmarked) [Example 402, 2-(benzenesulfonyl)-N-[(cyclopropyl-carbamoyl)methyl]-2-{6-[4-(3-hydroxy-3-methylazetidine-1-carbonyl)phenyl]-1,3-benzothiazol-2-yl}acetamide], with 6 nM. The same measure, in the same setting: then `COCCS(=O)(=O)C(C(=O)NCC(=O)NC1CC1)c1nc2ccc(-c3ccc(C(=O)N4CC[C@H](OC)C4)cc3)cc2s1` (stereo partly drawn) [Example 403, N-[(cyclopropyl-carbamoyl)methyl]-2-(2-methoxyethane-sulfonyl)-2-(6-{4-[(3S)-3-methoxy-pyrrolidine-1-carbonyl]phenyl}-1,3-benzothiazol-2-yl)acetamide], with 8 nM; and `COCCS(=O)(=O)C(C(=O)NCC(=O)NC1CC1)c1nc2ccc(-c3ccc(C(=O)N4CC(F)C4)cc3)cc2s1` (centres unmarked) [Example 404], with 10 nM. For the compound `COCCS(=O)(=O)C(C(=O)NCC(=O)NC1CC1)c1nc2ccc(-c3ccc(C(=O)N4CC(C)(O)C4)cc3)cc2s1` (centres unmarked) [Example 405, N-[(cyclopropyl-carbamoyl)methyl]-2-{6-[4-(3-hydroxy-3-methylazetidine-1-carbonyl)phenyl]-1,3-benzothiazol-2-yl}-2-(2-methoxyethane-sulfonyl)acetamide], the IC50 is 12 nM.

As to `COCCS(=O)(=O)C(C(=O)NCC(=O)NC1CC1)c1nc2ccc(-c3ccc(C(=O)N4CC(F)(F)C4)cc3)cc2s1` (centres unmarked) [Example 406, N-[(cyclopropyl-carbamoyl)methyl]-2-{6-[4-(3,3-difluoroazetidine-1-carbonyl)phenyl]-1,3-benzothiazol-2-yl}-2-(2-methoxyethane-sulfonyl)acetamide], the IC50 was 13 nM. Still for that read-out and setting: then `COCCS(=O)(=O)C(C(=O)NCC(=O)NC1CC1)c1nc2ccc(-c3ccc(C(=O)N4CC[C@@H](OC)C4)cc3)cc2s1` (stereo partly drawn) [Example 407, N-[(cyclopropyl-carbamoyl)methyl]-2-(2-methoxyethane-sulfonyl)-2-(6-{4-[(3R)-3-methoxy-pyrrolidine-1-carbonyl]phenyl}-1,3-benzothiazol-2-yl)acetamide], with 24 nM; and `COCCS(=O)(=O)C(C(=O)NCC(=O)NC1CC1)c1nc2ccc(-c3ccc(C(=O)O)cc3)cc2s1` (centres unmarked) [Example 408, 4-[2-({[(cyclopropyl-carbamoyl)methyl]carbamoyl}(2-methoxyethane-sulfonyl)methyl)-1,3-benzothiazol-6-yl]benzoic acid], with 48 nM. Still for that read-out and setting: then `COCCNC(=O)c1ccc(-c2ccc3nc(C(C(=O)NCC(=O)NC4CC4)S(=O)(=O)CCOC)sc3c2)cc1OC` (centres unmarked) [Example 409, 4-[2-({[(cyclopropyl-carbamoyl)methyl]carbamoyl}(2-methoxyethane-sulfonyl)methyl)-1,3-benzothiazol-6-yl]-2-methoxy-N-(2-methoxyethyl) benzamide], with 23 nM; and `COCCNC(=O)c1ccc(-c2ccc3nc(C(C(=O)NCC(=O)NC4CC4)S(C)(=O)=O)sc3c2)cc1OC` (centres unmarked) [Example 410, 4-[2-({[(cyclopropyl-carbamoyl)methyl]carbamoyl} (methanesulfonyl)methyl)-1,3-benzothiazol-6-yl]-2-methoxy-N-(2-methoxyethyl) benzamide], with 53 nM. Compound `COCCS(=O)(=O)C(C(=O)NCC(=O)NC1CC1)c1nc2cc(F)c(-c3ccc(-c4ncon4)cc3)cc2s1` (centres unmarked) [Example 411, 2-(6-(4-(1,2,4-Oxadiazol-3-yl)phenyl)-5-fluorobenzo[d]thiazol-2-yl)-N-(2-(cyclopropylamino)-2-oxoethyl)-2-((2-methoxyethyl)sulfonyl)acetamide] had an IC50 under setting [1] of 2.1 nM. Compound `Cc1ccn(-c2cccc(-c3ccc4nc(C(C(=O)NCC(=O)NC5CC5)S(C)(=O)=O)sc4c3)n2)n1` (centres unmarked) [Example 412, N-[(cyclopropyl-carbamoyl)methyl]-2-methanesulfonyl-2-{6-[6-(3-methyl-1H-pyrazol-1-yl)pyridin-2-yl]-1,3-benzothiazol-2-yl}acetamide] came in with an IC50 of 14 nM. Same read-out and setting: then `Cc1cnn(-c2cccc(-c3ccc4nc(C(C(=O)NCC(=O)NC5CC5)S(C)(=O)=O)sc4c3)n2)c1` (centres unmarked) [Example 413, N-[(cyclopropyl-carbamoyl)methyl]-2-methanesulfonyl-2-{6-[6-(4-methyl-1H-pyrazol-1-yl)pyridin-2-yl]-1,3-benzothiazol-2-yl}acetamide], with 7 nM; and `COCCS(=O)(=O)C(C(=O)NCC(=O)NC1CC1)c1nc2cc(F)c(-c3ccc(-c4cc(O)n[nH]4)cc3)cc2s1` (centres unmarked) [Example 415, N-[(cyclopropyl-carbamoyl)methyl]-2-{5-fluoro-6-[4-(3-hydroxy-1H-pyrazol-5-yl)phenyl]-1,3-benzothiazol-2-yl}-2-(2-methoxyethane-sulfonyl)acetamide], with 49 nM; and `COCCS(=O)(=O)C(C(=O)NCC(=O)NC1CC1)c1nc2cc(F)c(-c3ccc4c(c3)CCN4C(C)=O)cc2s1` (centres unmarked) [Example 416, 2-[6-(1-acetyl-2,3-dihydro-1H-indol-5-yl)-5-fluoro-1,3-benzothiazol-2-yl]-N-[(cyclopropyl-carbamoyl)methyl]-2-(2-methoxyethane-sulfonyl)acetamide], with 11 nM.

As a reminder, the IC50 is the concentration at which inhibition is half-maximal. Low readings indicate inhibition by little substance, high ones a need for much substance.
